Experimental data taken from ChEMBL document CHEMBL5316327, “Design and Synthesis of Orally Active Quinolyl Pyrazinamides as Sigma 2 Receptor Ligands for the Treatment of Pancreatic Cancer” (J Med Chem, 2023).
Calls of active or inactive are those of the source. The calls are words filed in the database; no cut-off is given here.

Tests used:
HCT-116 [1] = assay: Induction of cell cycle arrest in human HCT-116 cells assessed as accumulation of cells in G2/M phase at 5 uM measured after 24 hrs by propidium iodide staining-based flow cytometric analysis (reference value: 10%); format: functional
[2] = target: 5-hydroxytryptamine receptor 2C (Homo sapiens, UniProt P28335); assay: Binding affinity to 5-HT2C receptor (unknown origin) assessed as inhibition constant
BXPC-3 = assay: cells; conditions: Homo sapiens, BXPC-3, 72 h
[3] = Cmax in CD-1 mouse plasma at 20 mg/kg, po; format: ADME, organism-based; set-up: dose 20 mg/kg, route po
HCT-116 [4] = assay: Induction of apoptosis in human HCT-116 cells assessed as viable cells at 1.0 uM measured after 48 hrs by Annexin V-Alexa Fluor 488/propidium iodide staining based flow cytometry (reference value: 79.69%); format: functional; conditions: read-out: Activity
MIA PaCa-2 [5] = assay: Induction of apoptosis in human MIA PaCa-2 cells assessed as early apoptotic cells at 10.0 uM measured after 48 hrs by Annexin V-Alexa Fluor 488/propidium iodide staining based flow cytometry (reference value: 4.11%); format: functional
[6] = AUC (0 to infinity) in CD-1 mouse plasma at 10 mg/kg, iv; format: ADME, organism-based; set-up: dose 10 mg/kg, route iv
HCT-116 [7] = assay: Induction of cell cycle arrest in human HCT-116 cells assessed as accumulation of cells in S phase at […] measured after 24 hrs by propidium iodide staining-based flow cytometric analysis (reference value: 47%); format: functional; conditions: dose 2.5 µM
MIA PaCa-2 [8] = assay: Induction of apoptosis in human MIA PaCa-2 cells assessed as early apoptotic cells at 1.0 uM measured after 48 hrs by Annexin V-Alexa Fluor 488/propidium iodide staining based flow cytometry (reference value: 4.11%); format: functional
MIA PaCa-2 [9] = assay: Synergistic cytotoxicity in human MIA PaCa-2 cells at upto 1 uM measured after 7 days in presence of doxorubicin by crystal violet staining based analysis; format: functional, cell-based; conditions: time 7.0 day
MIA PaCa-2 [10] = assay: Induction of apoptosis in human MIA PaCa-2 cells assessed as necrotic cells at 5.0 uM measured after 48 hrs by Annexin V-Alexa Fluor 488/propidium iodide staining based flow cytometry (reference value: 7.03%); format: functional
PANC-1 = assay: cells; conditions: Homo sapiens, PANC-1, 72 h
HCT-116 [11] = assay: Inhibition of colony formation in human HCT-116 cells at 0.04 to 30 uM pretreated with ammonium tetrathiomolybdate for 4 hrs followed by compound addition and measured after 6 days; format: functional, cell-based; conditions: dose 0.04-30 µM, time 6.0 day
HCT-116 [12] = assay: Induction of cell cycle arrest in human HCT-116 cells assessed as accumulation of cells in S phase at 10 uM measured after 24 hrs by propidium iodide staining-based flow cytometric analysis (reference value: 47%); format: functional
HCT-116 [13] = assay: Induction of cell cycle arrest in human HCT-116 cells assessed as accumulation of cells in S phase at 1 uM measured after 24 hrs by propidium iodide staining-based flow cytometric analysis (reference value: 47%); format: functional
MIA PaCa-2 [14] = assay: Induction of apoptosis in human MIA PaCa-2 cells assessed as viable cells at 10.0 uM measured after 48 hrs by Annexin V-Alexa Fluor 488/propidium iodide staining based flow cytometry (reference value: 82.23%); format: functional; conditions: read-out: Activity
MIA PaCa-2 [15] = assay: Induction of apoptosis in human MIA PaCa-2 cells assessed as viable cells at 5.0 uM measured after 48 hrs by Annexin V-Alexa Fluor 488/propidium iodide staining based flow cytometry (reference value: 82.23%); format: functional; conditions: read-out: Activity
[16] = AUC (0 to time of last detectable concentration) in CD-1 mouse plasma at 20 mg/kg, po; format: ADME, organism-based; set-up: dose 20 mg/kg, route po
MIA PaCa-2 [17] = assay: Synergistic cytotoxicity in human MIA PaCa-2 cells at upto 1 uM measured after 7 days in presence of cisplatin by crystal violet staining based analysis; format: functional, cell-based; conditions: time 7.0 day
[18] = Toxicity in C57BL/6 mouse assessed as effect on body weight at 30 mg/kg, po administered for 32 days and measured on day 1 to 3,5,6,8 to 32 in presence of copper sulfate; format: organism-based; conditions: in vivo, 768 h, time 32 day
HCT-116 [19] = assay: Antagonistic cytotoxicity against human HCT-116 cells at upto 1 uM measured after 6 days in presence of disulfiram by crystal violet staining based analysis; format: functional, cell-based; conditions: time 6.0 day

Chain of 5-hydroxytryptamine receptor 2C (P28335 whole entry): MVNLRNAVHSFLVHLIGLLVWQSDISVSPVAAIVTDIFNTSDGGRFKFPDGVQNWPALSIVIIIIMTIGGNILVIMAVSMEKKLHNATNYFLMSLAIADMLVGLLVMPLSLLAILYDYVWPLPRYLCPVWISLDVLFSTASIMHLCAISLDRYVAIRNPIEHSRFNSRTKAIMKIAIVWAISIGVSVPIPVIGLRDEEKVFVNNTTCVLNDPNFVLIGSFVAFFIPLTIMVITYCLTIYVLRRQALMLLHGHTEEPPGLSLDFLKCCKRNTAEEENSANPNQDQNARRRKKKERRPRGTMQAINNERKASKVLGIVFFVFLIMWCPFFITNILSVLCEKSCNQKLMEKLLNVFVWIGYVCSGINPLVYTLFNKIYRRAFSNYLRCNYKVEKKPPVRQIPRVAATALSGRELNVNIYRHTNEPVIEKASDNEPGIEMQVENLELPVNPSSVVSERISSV

Ki [2]: 0.471 µM | IC50 (BXPC-3): 5.8 µM | Cmax [3]: 254 ng/mL | AUC(0-inf) [6]: 2680 ng·h/mL | IC50 (PANC-1): 4 µM | AUC [16]: 3110 ng·h/mL
Compound: CCN(CC)CCCC(C)Nc1cnc(C(=O)Nc2ccc(Cl)c3cccnc23)cn1 (stereo unspecified)
Activity (HCT-116 [1]): 22% | viability at 1 µM (HCT-116 [4]): 78.3% | Activity (MIA PaCa-2 [5]): 32.58% | Activity (HCT-116 [7]): 33% | Activity (MIA PaCa-2 [8]): 11.44% | Activity (MIA PaCa-2 [9]): inactive | Activity (MIA PaCa-2 [10]): 5.32% | inhibition (HCT-116 [11]): inactive | Activity (HCT-116 [12]): 20% | Activity (HCT-116 [13]): 34% | viability at 10 µM (MIA PaCa-2 [14]): 6.27% | viability at 5 µM (MIA PaCa-2 [15]): 32.4% | Activity (MIA PaCa-2 [17]): inactive | Activity [18]: Non-Toxic | Activity (HCT-116 [19]): inactive
